Results: patent US20140243239A1, “MULTIPLEXED KINASE INHIBITOR BEADS AND USES THEREOF” (University of North Carolina at Chapel Hill, priority 2011, published 2014)

Assays:
[1] = test system: ERK; assay: MEK/ERK activation in C3Tag tumors (western blot); type: in vivo, mouse; conditions: AZD6244 20 mg/kg 28 days; sorafenib 30 mg/kg 26 days
Method: (§1) Treatment began the same day. Tumor size was assessed twice weekly by caliper measurements of tumor areas ((width)2×length))/2 for 21 days. […] Drugs were incorporated into the diet of mice to achieve a daily dose of AZD6244 20 mg/kg and sorafenib 30 mg/kg. […] Tumors at harvest were cut in half and either snap-frozen in liquid nitrogen and stored at −80° C. or placed in neutral buffered 10% formalin solution.
Western blotting: Proteins from cell lysates were separated by SDS-PAGE chromatography, transferred to nitrocellulose membranes, and probed with the indicated primary antibodies. Antibodies recognizing pAKT (S473), pAKT (T308), AURA, pAXL (Y702), AXL, c-Myc, DDR1, EGFR, pERK1/2 (T202/Y204), pHER3 (Y1197), MAX, pMEK1/2 (S217/S221), MEK1/2, MKP3, pP70S6K (T389), pPDGFRβ (Y751), pPDGFRβ (Y1009), pPDGFR (Y857), PDGFRβ, pRAF (S338), pRSK1 (T359/S363), pVEGFR2 (Y1175), VEGFR2 were obtained from Cell Signaling Technology. Antibodies for Cyclin A2, Cyclin B1, Cyclin D1, ERK2, RAF, and pRAF (S259) were obtained from Santa Cruz Biotechnology. The antibody recognizing Bim was obtained from Chemicon. The antibody recognizing p-c-Myc (S62) was obtained from Abeam. Secondary HRP-anti-rabbit and HRP-anti-goat secondary antibodies were from Jackson Immunoresearch Laboratories and Santa Cruz Biotechnology, respectively. […]

[2] = test system: SUM159-R cells; assay: Growth of AZD6244-resistant SUM159-R cells; type: cell-based, human; conditions: 25 μM AZD6244
Method: (§2) Cell Culture: MDA-MB-231 cells were grown in DMEM/F12 supplemented with 10% FBS. SUM-159 cells were grown in DMEM/F12 supplemented with 10% FBS 1 μg/mL hydrocortisone, and 5 μg/mL insulin. SUM159-R cells were continually grown in the presence of 5 μM AZD6244. For SILAC labeling, cells were grown for five doublings in arginine- and lysine-depleted media (as above) supplemented with either unlabeled L-arginine (42 mg/L) and L-lysine (71 mg/L) or equimolar amounts of heavy isotope labeled [13C6,15N4]arginine (Arg10) and [13C6]lysine (Lys6) (Cambridge Isotope Laboratories). Proliferation was quantified using Cell-Titer Glo Luminescent Cell Viability Assay (Promega). Fresh media containing DMSO or kinase inhibitors was added daily and experiments were performed in triplicate.
(§3) Generation of AZD6244 resistant SUM159 cells: SUM159 cells were cultured in DMEM/F12 supplemented with 10% FBS media containing 5 μM AZD6244. Media was changed every 2 days, maintaining inhibitor concentrations of 5 μM AZD6244.

[3] = test system: ERK1/2; assay: Western blot of MEK/ERK signaling in SUM159 cells; type: cell-based, human; conditions: 15 min-4 h, SUM159 and MDA-MB-231 cells
Source text: (§4) Detailed methods and antibodies are provided in Supplemental Experimental Procedures.
(§5) Western blotting: Proteins from cell lysates were separated by SDS-PAGE chromatography, transferred to nitrocellulose membranes, and probed with the indicated primary antibodies. Antibodies recognizing pAKT (S473), pAKT (T308), AURA, pAXL (Y702), AXL, c-Myc, DDR1, EGFR, pERK1/2 (T202/Y204), pHER3 (Y1197), MAX, pMEK1/2 (S217/S221), MEK1/2, MKP3, pP70S6K (T389), pPDGFRβ (Y751), pPDGFRβ (Y1009), pPDGFR (Y857), PDGFRβ, pRAF (S338), pRSK1 (T359/S363), pVEGFR2 (Y1175), VEGFR2 were obtained from Cell Signaling Technology. Antibodies for Cyclin A2, Cyclin B1, Cyclin D1, ERK2, RAF, and pRAF (S259) were obtained from Santa Cruz Biotechnology. The antibody recognizing Bim was obtained from Chemicon. The antibody recognizing p-c-Myc (S62) was obtained from Abeam. Secondary HRP-anti-rabbit and HRP-anti-goat secondary antibodies were from Jackson Immunoresearch Laboratories and Santa Cruz Biotechnology, respectively. Western blots were visualized by incubation with SuperSignal West Pico Chemiluminescent Substrate (Thermo Scientific).

[4] = test system: MDA-MB-231 cells; assay: MDA-MB-231 cell growth (Cell-Titer Glo); type: cell-based, human; conditions: 5 μM MEK inhibitor (FIG. 9A)
Method: as §2

[5] = test system: c-Myc; assay: c-Myc protein and RNA levels in SUM159 cells (western blot, qRT-PCR); type: cell-based, human; conditions: 5 μM AZD6244
Method: (§6) Western blotting and RTK arrays: Western blotting and RTK array analysis were performed as previously described (Amin et al., 2010). Amin et al. 2010 Sci Transl Med 2, 16ra17. Detailed methods and antibodies are provided in Supplemental Experimental Procedures.
qRT-PCR: Total RNA was isolated from human breast cancer cell lines or murine tumors using the RNeasy® Plus Mini Kit (Qiagen). Real-time RT-PCR was performed on diluted cDNA using the Applied Biosystems 7500 Fast Real-Time PCR System (standard program) and inventoried TaqMan® Gene Expression Assays. Each cDNA sample was assayed in triplicate. Fold change with respect to the calibrator represents the average of the triplicate values, with error bars representing the range of the mean (95% confidence).
as §5

[6] = test system: RTKs; assay: RTK expression in C3Tag tumors (western blot); type: in vivo, mouse
Method: as §1, §5

[7] = test system: RTKs; assay: RTK tyrosine phosphorylation/expression in SUM159 cells (RTK arrays, western blot); type: cell-based, human; conditions: 5 μM AZD6244; 50 nM BEZ235 (FIG. 3H)
Method: as §6, §5
RTK arrays: Cells were harvested in RTK array lysis buffer containing 20 mM Tris-HCl (pH 8.0), 1% NP-40, 10% glycerol, 137 mM NaCl, 2 mM EDTA, 1×EDTA-free protease inhibitor cocktail (Roche), and 1% each of phosphatase inhibitor cocktails 1 and 2 (Sigma). After incubating on ice for 20 minutes, cell debris was pelleted at 4° C. Lysates (500 μg protein) were applied to R&D Systems Proteome Profiler™ Human Phospho-RTK antibody arrays. Washing and secondary antibody steps were performed according to the manufacturer“s instructions. RTK arrays were visualized by SuperSignal West Pico Chemiluminescent Substrate (Thermo Scientific).

[8] = test system: ERK1/2; assay: ERK activity in SUM159-R cells (western blot); type: cell-based, human
Method: as §4, §3, §5

Cn1cnc2c(F)c(Nc3ccc(Br)cc3Cl)c(C(=O)NOCCO)cc21 [AZD6244]
tumor MEK and ERK compared to untreated animals [1]: strongly activated | growth of SUM159-R cells [2]: growth arrested | MEK and ERK, early response [3]: rapidly inhibited | growth of MDA-MB-231 cells [4]: inhibited growth | c-Myc protein and mRNA [5]: rapid loss of c-Myc protein and c-Myc mRNA | expression of RTKs in C3Tag tumors versus untreated ([6]; AZD6244 20 mg/kg 28 days, sorafenib 30 mg/kg 26 days): elevated | PDGFRβ expression in C3Tag tumors ([6]; AZD6244 20 mg/kg, 2 and 7 days): strongly induced | RTK phosphorylation profile [7]: induced PDGFRβ, VEGFR2 and AXL phosphorylation | ERK activation in SUM159-R cells ([8]; 25 μM AZD6244): inhibited ERK activation | ERK activity in SUM159-R cells ([8]; 50 μM AZD6244): can be inhibited
